Assay results reported in patent US6610716B2, “Cyanomethyl substituted thiazoliums and imidazoliums and treatments of disorders associated with protein aging” (Alteon Incorporated, priority 2000, dated 2003).
Counter-ions that a name gives are not always drawn.

Columns and labels:
[1] = use of chlorhexidine; cited from earlier work
[2] = diabetic rats; cited from earlier work
[3] = in vivo; cited from earlier work
[4] = streptozotocin-diabetic rat model; cited from earlier work
red blood cells = conditions: in vivo; cited from earlier work
Phase Ia clinical trial = assay type: in vivo, human
From the text: When the heart pumps blood into the vascular system, the ability of the arteries to expand helps to push blood through the body. When arteries become stiff, as they do in the natural process of aging. the ability of the arteries to expand is diminished and also has consequences for the heart. The heart has to work harder to pump the blood into the stiff arteries, and eventually hypertrophies (enlarges in size) to accomplish this. A hypertrophied heart is an inefficient pump, and is one of the disorders that leads to congestive heart failure. […] The potential clinical benefit of this is to lessen the effort that the heart must expend to push blood throughout the body. The effect is also believed to contribute to preventing hypertrophy and subsequent inefficiency of the heart, which inefficiency would contribute to congestive heart failure.
Atherosclerosis is a disease that involves deposition of blood lipids in plaque in the arteries throughout the body. In coronary arteries, accumulation of plaque progressively leads to reduced coronary flow, with occlusion of the arteries causing focal death of cardiac tissue (myocardial infarction, heart attack). If the amount of tissue that dies is large enough, death ensures. In a Phase Ia trial, one compound believed to work by a mechanism shared by the compounds of the invention, 3-[2-phenyl-2-oxoethyl]-4,5-dimethyl-thiazolium salt, […] the amount of circulating triglycerides (lipids). […] Reducing local deposits of plaque should eventually lessen the risk of myocardial infarction and death due to heart attacks.
Pulse pressure is the difference between systolic and diastolic blood pressure. In a young human, systolic pressure is typically 120 mm Hg and diastolic pressure is 80 mm Hg, resulting in a pulse pressure of 40 mm Hg. With age, in many individuals pulse pressure increases, largely due to the increase in systolic pressure that results from stiff vessel disease. In individuals with pulse pressure greater than 60 mm Hg there is an increased risk of death from cardiovascular morbidities.

[5] = Dog model for diabetes, indicators of ventricular elasticity; assay type: in vivo
From the text: (§1) Cardiovascular risk correlates more closely with the systolic and the pulse pressure than with the diastolic pressure. In diabetic patients, the cardiovascular risk profile of diabetic patients is strongly correlated to duration of diabetes, glycemic control and blood pressure. Structural matrix proteins contribute to the function of vessels and the heart, and changes in the physical behavior of cardiovascular walls are believed to be important determinants of circulatory function. In elderly individuals, the loss of compliance in the aorta leads to isolated systolic hypertension, which in turn expands the arterial wall and thereby diminishes the dynamic range of elasticity. […] Treatment with 3-[2-phenyl-2-oxoethyl]-4,5-dimethyl-thiazolium salt lead to a reduction in the mass of collagen in cardiovascular tissues.

[6] = In vivo studies of vascular stiffening and cardiovascular collagen; set-up: species or system rodents, canines and primates
From the text: as §1

TGFbeta = experiment: In situ hybridization studies; assay type: in vivo
From the text: as §1

Type IV collagen = experiment: In situ hybridization studies; assay type: in vivo
From the text: as §1

Structure (SMILES): [H]/N=C(\N/C(=N/[H])NCCCCCCNC(=N)NC(=N)Nc1ccc(Cl)cc1)Nc1ccc(Cl)cc1 [chlorhexidine]
- dental pellicle [1]: increased dental pellicle

Structure (SMILES): Cc1sc[n+](CC#N)c1C.[Br-]
- melting point: 184 to 186 °C (dec.)

Structure (SMILES): N=C(N)NN [aminoguanidine]
- aortic wall protein cross-linking [2]: diminishes
- immunoglobulin trapping in the kidney [3]: reduction
- increased glomerular basement membrane thickness [4]: prevented
- diabetes-induced changes in the deformability of red blood cells (red blood cells): prevent, treat or reverse such changes

Structure (SMILES): Cc1sc[n+](CC(=O)c2ccccc2)c1C [3-[2-phenyl-2-oxoethyl]-4,5-dimethyl-thiazolium salt]
- stiffness of arteries, as measured by the ratio of stroke volume (ml) to pulse pressure (mm Hg) (Phase Ia clinical trial; Phase Ia clinical trial): reverse the stiffness of arteries
- amount of circulating triglycerides (lipids) (Phase Ia clinical trial; Phase Ia trial): increased
- systolic blood pressure (Phase Ia clinical trial; Phase Ia trial, believed primary cause of the pulse pressure decrease): lowering the systolic blood pressure
- pulse pressure (Phase Ia clinical trial; Phase Ia trial, elderly patients with pulse pressures greater than 60 mm Hg, statistically significant): reduced pulse pressure
- end diastolic pressure [5]: returned to a value at about the mid-point between the disease impaired value and the value for control dogs
- end diastolic volume [5]: returned to a value at about the mid-point between the disease impaired value and the value for control dogs
- mass of collagen in cardiovascular tissues ([6]; in vivo): reduction
- vascular stiffening ([6]; in vivo studies in rodents, canines and primates): substantially ameliorating vascular stiffening
- expression of TGFbeta (TGFbeta): reduces the expression
- expression of Type IV collagen (Type IV collagen): reduces the expression

Structure (SMILES): N#CC[n+]1csc2c1CCCC2.[Br-]
- melting point: 215 to 217 °C (dec.)
